# Assay results from ChEMBL document CHEMBL1201862, “PubChem BioAssay data set” (2004).
#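 Test compounds were applied to cells in 96-well plates for 48 hours at 5 doses. GI50 is the concentration that inhibits growth by half.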 Active and inactive are the calls of the source. Rule as the data show it: active = GI50 up to about 1.1 µM and inactive = higher.
# Columns and labels:
# Experiment in all cases: NCI anticancer screen, dose series, 48 h
# A549 = tested on: A549
# KM12 = tested on: KM12
# HT-29 = tested on: HT-29
# CAKI-1 = tested on: CAKI-1
# DMS-273 = tested on: DMS-273
# OVCAR-5 = tested on: OVCAR-5
# SF-539 = tested on: SF-539
# M14 = tested on: M14
# LOX IMVI = tested on: LOX IMVI
# SF-295 = tested on: SF-295
# SK-MEL-28 = tested on: SK-MEL-28
# K562 = tested on: K562
# NCI-H460 = tested on: NCI-H460
# HCT-116 = tested on: HCT-116
# SK-OV-3 = tested on: SK-OV-3
# 786-0 = tested on: 786-0
# RPMI-8226 = tested on: RPMI-8226
# HOP-62 = tested on: HOP-62
# CCRF-CEM = tested on: CCRF-CEM
# HL-60 = tested on: HL-60
# NCI-H23 = tested on: NCI-H23
# OVCAR-8 = tested on: OVCAR-8
# EKVX = tested on: EKVX
# OVCAR-4 = tested on: OVCAR-4
# SF-268 = tested on: SF-268
# SW-620 = tested on: SW-620
# IGROV-1 = tested on: IGROV-1
# RXF 631 = tested on: RXF 631
# HOP-18 = tested on: HOP-18
# HCC 2998 = tested on: HCC 2998
# M19-MEL = tested on: M19-MEL
# UACC-257 = tested on: UACC-257
# MOLT-4 = tested on: MOLT-4
# UACC-62 = tested on: UACC-62
# U-251 = tested on: U-251
# Malme-3M = tested on: Malme-3M
# COLO 205 = tested on: COLO 205
# XF498 = tested on: XF498
# SK-MEL-2 = tested on: SK-MEL-2
# UO-31 = tested on: UO-31
# NCI-H226 = tested on: NCI-H226
# KM-20L2 = tested on: KM-20L2
# DLD-1 = tested on: DLD-1
# SNB-19 = tested on: SNB-19
# NCI-H522 = tested on: NCI-H522
# SN12C = tested on: SN12C
# SNB-78 = tested on: SNB-78
# DMS-114 = tested on: DMS-114
# LXFL 529 = tested on: LXFL 529
# A498 = tested on: A498
# TK-10 = tested on: TK-10
# HOP-92 = tested on: HOP-92
# OVCAR-3 = tested on: OVCAR-3
# HCT-15 = tested on: HCT-15
# ACHN = tested on: ACHN
# SR = tested on: SR
# SK-MEL-5 = tested on: SK-MEL-5
# SNB-75 = tested on: SNB-75
compound,measurement,setting,value
COC(=N)c1csc(C2OC(CO)C(O)C2O)n1 (centres undefined),GI50,A549,> 100 µM (inactive)
same,GI50,KM12,> 100 µM (inactive)
same,GI50,HT-29,> 100 µM (inactive)
same,GI50,CAKI-1,> 100 µM (inactive)
same,GI50,DMS-273,> 100 µM (inactive)
same,GI50,OVCAR-5,> 100 µM (inactive)
same,GI50,SF-539,> 100 µM (inactive)
same,GI50,M14,> 100 µM (inactive)
same,GI50,LOX IMVI,> 100 µM (inactive)
same,GI50,SF-295,> 100 µM (inactive)
same,GI50,SK-MEL-28,> 100 µM (inactive)
same,GI50,K562,> 100 µM (inactive)
same,GI50,NCI-H460,> 100 µM (inactive)
same,GI50,HCT-116,> 100 µM (inactive)
same,GI50,SK-OV-3,> 100 µM (inactive)
same,GI50,786-0,> 100 µM (inactive)
same,GI50,RPMI-8226,> 100 µM (inactive)
same,GI50,HOP-62,> 100 µM (inactive)
same,GI50,CCRF-CEM,86.5 µM (inactive)
same,GI50,HL-60,38.5 µM (inactive)
same,GI50,NCI-H23,> 100 µM (inactive)
same,GI50,OVCAR-8,> 100 µM (inactive)
same,GI50,EKVX,> 100 µM (inactive)
same,GI50,OVCAR-4,> 100 µM (inactive)
same,GI50,SF-268,> 100 µM (inactive)
same,GI50,SW-620,> 100 µM (inactive)
same,GI50,IGROV-1,> 100 µM (inactive)
same,GI50,RXF 631,> 100 µM (inactive)
same,GI50,HOP-18,> 100 µM (inactive)
same,GI50,HCC 2998,> 100 µM (inactive)
same,GI50,M19-MEL,> 100 µM (inactive)
same,GI50,UACC-257,> 100 µM (inactive)
same,GI50,MOLT-4,61.9 µM (inactive)
same,GI50,UACC-62,> 100 µM (inactive)
same,GI50,U-251,> 100 µM (inactive)
same,GI50,Malme-3M,> 100 µM (inactive)
same,GI50,COLO 205,> 100 µM (inactive)
same,GI50,XF498,> 100 µM (inactive)
same,GI50,SK-MEL-2,> 100 µM (inactive)
same,GI50,UO-31,50.7 µM (inactive)
same,GI50,NCI-H226,> 100 µM (inactive)
same,GI50,KM-20L2,> 100 µM (inactive)
same,GI50,DLD-1,83.9 µM (inactive)
same,GI50,SNB-19,> 100 µM (inactive)
same,GI50,NCI-H522,> 100 µM (inactive)
same,GI50,SN12C,> 100 µM (inactive)
same,GI50,SNB-78,> 100 µM (inactive)
same,GI50,DMS-114,> 100 µM (inactive)
same,GI50,LXFL 529,> 100 µM (inactive)
same,GI50,A498,> 100 µM (inactive)
same,GI50,TK-10,> 100 µM (inactive)
same,GI50,HOP-92,> 100 µM (inactive)
same,GI50,OVCAR-3,> 100 µM (inactive)
same,GI50,HCT-15,> 100 µM
same,GI50,ACHN,> 100 µM (inactive)
CCOP(=O)(OCC)/C(C#N)=C/c1ccco1,GI50,A549,> 100 µM (inactive)
same,GI50,KM12,> 100 µM (inactive)
same,GI50,HT-29,> 100 µM (inactive)
same,GI50,CAKI-1,> 100 µM (inactive)
same,GI50,SR,> 100 µM (inactive)
same,GI50,OVCAR-5,> 100 µM (inactive)
same,GI50,SF-539,> 100 µM (inactive)
same,GI50,M14,> 100 µM (inactive)
same,GI50,LOX IMVI,> 100 µM (inactive)
same,GI50,SF-295,> 100 µM (inactive)
same,GI50,SK-MEL-28,> 100 µM (inactive)
same,GI50,K562,> 100 µM (inactive)
same,GI50,NCI-H460,> 100 µM (inactive)
same,GI50,SK-MEL-5,> 100 µM (inactive)
same,GI50,HCT-116,> 100 µM (inactive)
same,GI50,SK-OV-3,> 100 µM (inactive)
same,GI50,786-0,> 100 µM (inactive)
same,GI50,RPMI-8226,> 100 µM (inactive)
same,GI50,HOP-62,> 100 µM (inactive)
same,GI50,CCRF-CEM,> 100 µM (inactive)
same,GI50,HL-60,> 100 µM (inactive)
same,GI50,NCI-H23,> 100 µM (inactive)
same,GI50,OVCAR-8,> 100 µM (inactive)
same,GI50,EKVX,> 100 µM (inactive)
same,GI50,OVCAR-4,> 100 µM (inactive)
same,GI50,SF-268,> 100 µM (inactive)
same,GI50,SW-620,> 100 µM (inactive)
same,GI50,IGROV-1,> 100 µM (inactive)
same,GI50,RXF 631,> 100 µM (inactive)
same,GI50,HOP-18,> 100 µM (inactive)
same,GI50,HCC 2998,> 100 µM (inactive)
same,GI50,M19-MEL,> 100 µM (inactive)
same,GI50,UACC-257,> 100 µM (inactive)
same,GI50,MOLT-4,> 100 µM (inactive)
same,GI50,UACC-62,> 100 µM (inactive)
same,GI50,U-251,> 100 µM (inactive)
same,GI50,Malme-3M,> 100 µM (inactive)
same,GI50,COLO 205,> 100 µM (inactive)
same,GI50,XF498,> 100 µM (inactive)
same,GI50,SK-MEL-2,> 100 µM (inactive)
same,GI50,UO-31,> 100 µM (inactive)
same,GI50,NCI-H226,> 100 µM (inactive)
same,GI50,DLD-1,> 100 µM (inactive)
same,GI50,NCI-H522,> 100 µM (inactive)
same,GI50,SN12C,> 100 µM (inactive)
same,GI50,SNB-78,> 100 µM (inactive)
same,GI50,DMS-114,> 100 µM (inactive)
same,GI50,LXFL 529,> 100 µM (inactive)
same,GI50,A498,> 100 µM (inactive)
same,GI50,SNB-75,> 100 µM (inactive)
same,GI50,TK-10,> 100 µM (inactive)
same,GI50,HOP-92,> 100 µM (inactive)
same,GI50,HCT-15,> 100 µM
same,GI50,ACHN,> 100 µM (inactive)
